# Source: patent publication US5912153A, “(1,3) β-glucan synthase genes and inducible inhibition of fungal growth using the antisense constructs derived therefrom” (priority 1995, dated 1999)
# Target: Neurospora crassa wild type (1,3)β-glucan synthase (crude extract) (Neurospora crassa, UniProt Q7S0A7)
# Test: (1,3)β-glucan synthase assay with quinate added to wild type crude extract
# Type: biochemical
# Settings: concentrations as high as 4.0% of quinate added to the assay, data not shown
# Experimental: To fresh hyphal pellets was added 20-mls of extraction buffer (25 mM HEPES (pH7.4); 10 mM NaH2 PO4; 600 mM glycerol; 10 mM NaF; 5 mM EDTA and 10 μM GTPy-S). At 4° C., hyphae were disrupted (5×30 second pulses with 2 minute coolings between each pulse) using a Bead Beater (Biospec Products, Bartlesville, Okla.) with 0.5 mm zirconium-silica beads. Lysates were centrifuged at 1000×g for 10 min at […], and used for the enzyme assays as will subsequently be described. Protein concentrations were determined by the method of Bradford using the Bio-Rad protein reagent (BioRad Labs, Hercules, Calif.). The yield was anywhere from 0.9-2.4 mg/ml crude extract depending on the transformant.
# (1,3)β-Glucan synthase was assayed using modifications of a procedure previously described. To this end, in vitro reactions contained 50 μg α-amylase (type IIA; Sigma), 1 mM UDP-^14 C-glucose (~50,000 cpm/assay), and 20 μl crude extract in a final volume of 26 μl. Reactions were carried out in V-bottom 96-well microtiter plates (Dynatec Laboratories, Chantilly, Va.) and incubated at 22° C. for 0, 15, 30, 45, and 60 minutes. […]
# Wrapped Inotech glass fiber filters were placed for 4-18 hours on a Molecular Dynamics Phosphor Screen. The amount of radioactivity on the filter was determined using a Molecular Dynamics Phosphor Imager Model Sl. […]
# Chain of Neurospora crassa wild type (1,3)β-glucan synthase (crude extract) (Q7S0A7 1-1955): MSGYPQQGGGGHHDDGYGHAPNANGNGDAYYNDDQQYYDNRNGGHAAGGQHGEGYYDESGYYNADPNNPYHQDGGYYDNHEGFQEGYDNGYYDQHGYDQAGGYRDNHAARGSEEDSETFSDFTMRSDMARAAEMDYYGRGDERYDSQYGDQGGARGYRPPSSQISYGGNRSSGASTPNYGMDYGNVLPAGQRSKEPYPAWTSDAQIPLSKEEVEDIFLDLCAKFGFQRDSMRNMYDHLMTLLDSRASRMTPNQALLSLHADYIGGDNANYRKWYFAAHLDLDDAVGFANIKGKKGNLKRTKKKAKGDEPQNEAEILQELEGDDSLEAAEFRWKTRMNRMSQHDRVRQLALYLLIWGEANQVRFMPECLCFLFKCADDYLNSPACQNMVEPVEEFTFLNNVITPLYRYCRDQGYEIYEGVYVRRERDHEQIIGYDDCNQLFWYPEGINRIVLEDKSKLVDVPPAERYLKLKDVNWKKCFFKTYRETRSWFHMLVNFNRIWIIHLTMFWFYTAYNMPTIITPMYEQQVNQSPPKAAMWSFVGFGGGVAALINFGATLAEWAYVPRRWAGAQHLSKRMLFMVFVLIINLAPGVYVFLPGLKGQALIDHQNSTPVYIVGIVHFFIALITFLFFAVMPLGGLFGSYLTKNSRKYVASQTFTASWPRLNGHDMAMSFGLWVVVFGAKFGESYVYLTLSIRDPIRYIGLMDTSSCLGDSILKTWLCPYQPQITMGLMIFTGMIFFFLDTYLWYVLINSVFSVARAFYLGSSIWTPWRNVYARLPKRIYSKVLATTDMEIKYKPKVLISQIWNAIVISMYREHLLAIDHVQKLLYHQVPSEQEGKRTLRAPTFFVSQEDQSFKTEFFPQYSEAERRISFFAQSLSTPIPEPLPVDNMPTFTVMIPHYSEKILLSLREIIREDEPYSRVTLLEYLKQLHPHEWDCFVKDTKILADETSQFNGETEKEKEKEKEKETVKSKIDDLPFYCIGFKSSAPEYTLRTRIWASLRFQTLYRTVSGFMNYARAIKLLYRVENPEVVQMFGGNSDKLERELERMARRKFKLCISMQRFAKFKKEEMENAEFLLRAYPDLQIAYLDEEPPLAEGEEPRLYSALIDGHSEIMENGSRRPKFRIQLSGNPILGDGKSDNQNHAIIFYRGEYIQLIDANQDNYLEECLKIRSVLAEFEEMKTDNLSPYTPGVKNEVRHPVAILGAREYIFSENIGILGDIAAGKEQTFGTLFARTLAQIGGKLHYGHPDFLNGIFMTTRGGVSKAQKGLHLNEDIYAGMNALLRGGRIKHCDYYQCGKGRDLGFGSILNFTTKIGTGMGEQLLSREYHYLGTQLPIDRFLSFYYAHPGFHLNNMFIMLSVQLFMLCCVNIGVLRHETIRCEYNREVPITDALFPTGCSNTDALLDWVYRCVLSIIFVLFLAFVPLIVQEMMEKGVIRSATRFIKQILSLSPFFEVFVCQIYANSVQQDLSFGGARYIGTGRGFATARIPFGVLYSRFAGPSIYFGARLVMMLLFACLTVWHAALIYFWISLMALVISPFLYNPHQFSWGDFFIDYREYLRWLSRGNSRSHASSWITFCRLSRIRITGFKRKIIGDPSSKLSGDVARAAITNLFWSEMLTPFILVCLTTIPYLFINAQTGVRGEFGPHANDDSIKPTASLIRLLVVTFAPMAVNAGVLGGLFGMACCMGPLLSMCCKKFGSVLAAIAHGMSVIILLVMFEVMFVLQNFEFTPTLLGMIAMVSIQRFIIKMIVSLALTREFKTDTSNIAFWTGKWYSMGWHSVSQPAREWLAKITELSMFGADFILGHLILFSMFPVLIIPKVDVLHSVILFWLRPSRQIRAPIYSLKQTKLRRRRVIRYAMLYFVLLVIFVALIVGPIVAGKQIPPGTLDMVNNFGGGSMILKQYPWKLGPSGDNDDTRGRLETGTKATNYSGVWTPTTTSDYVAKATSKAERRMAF
# Chain of Neurospora crassa wild type (1,3)β-glucan synthase (crude extract) (Q7RXU8 1-195 partner): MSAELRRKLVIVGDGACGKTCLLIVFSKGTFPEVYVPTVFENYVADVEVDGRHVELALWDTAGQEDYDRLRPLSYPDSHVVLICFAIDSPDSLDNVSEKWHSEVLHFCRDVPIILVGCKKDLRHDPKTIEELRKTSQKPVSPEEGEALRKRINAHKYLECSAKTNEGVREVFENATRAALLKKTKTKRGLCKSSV
smiles,measurement,value
"O=C(O)C1(O)CC(O)C(O)C(O)C1 (single isomer, unassigned) [quinate, quinic acid]","inhibitory effect of quinate on (1,3)β-glucan synthase activity",did not show an inhibitory effect
